Reference: patent US8101603B2, “Tyrosine kinase inhibitors” (Merck Sharp & Dohme Corp., priority 2006, dated 2012)

Target: T1, human c-Met (Homo sapiens, UniProt P08581)
T1 construct: Recombinant GST-tagged cytosolic domains of human c-Met; 6xHis; made in house; host or cells: Sf9 or Sf21 insect cells (baculovirus, Pharmingen pGcGHLT vector)
Experiment: In vitro c-Met kinase assay (homogeneous time-resolved fluorescence)
Type: biochemical
Conditions: recombinant GST-tagged c-Met cytosolic domain, 50 μM MgATP, HTRF
From the text: Recombinant GST-tagged cytosolic domains of human c-Met and other receptor tyrosine kinases including mouse c-Met, human Ron, KDR, IGFR, EGFR, FGFR, Mer, TrkA and Tie2 are used to determine whether the compounds of the instant invention modulate the enzymatic activities of these kinases.
Soluble recombinant GST-tagged cytosolic domains of c-Met and other receptor tyrosine kinases are expressed in a baculovirus system (Pharmingen) according to a protocol recommended by the manufacturer. The c-DNA encoding each cytosolic domain is subcloned into a baculovirus expression vector (pGcGHLT-A, B or C, Pharmingen) containing an in frame 6× histidine tag and a GST tag. The resulting plasmid construct and BaculoGold baculovirus DNA (Pharmingen) are used to co-transfect Sf9 or Sf21 insect cells. After confirming expression of GST-tagged kinase fusion, a high titer recombinant baculovirus stock is produced, expression conditions are optimized, and a scaled up expression of rat KDR-GST fusion is performed. The fusion kinase is then purified from the insect cell lysate by affinity chromatography using glutathione agarose (Pharmingen). The purified protein is dialyzed against 50% glycerol, 2 mM DTT, 50 mM Tris-HCl (pH 7.4) and stored at −20° C. The protein concentrations of the fusion proteins are determined using Coomassie Plus Protein Assay (Pierce) with BSA as standard.
The procedure for determining the potency of a compound to inhibit c-Met kinase comprises the following steps: • 1. Prepare 3-fold serial diluted compound solutions in 100% dimethyl sulfoxide (DMSO) at 20× of the desired final concentrations in a 96 well plate. • 2. […] In a black assay plate, add 2.5 μl of compound solution (or DMSO) and 37.5 μl of master reaction mix per well. Initiate the kinase reaction by adding 10 μl of 0.25 mM MgATP per well. Allow the reactions to proceed for 80 min at room temperature. The final conditions for the reaction are 0.2 nM c-Met, 0.5 μM substrate, 50 μM MgATP, 5 mM MgCl2, 100 mM NaCl, 2 mM DTT, 0.1 mg/ml BSA, 50 mM Tris (pH 7.4) and 5% DMSO. • 4. […] Read HTRF signals on a Victor reader (PerkinElmer) in HTRF mode after 60 min. • 6.

T1 sequence (P08581 956-1390 limits assumed): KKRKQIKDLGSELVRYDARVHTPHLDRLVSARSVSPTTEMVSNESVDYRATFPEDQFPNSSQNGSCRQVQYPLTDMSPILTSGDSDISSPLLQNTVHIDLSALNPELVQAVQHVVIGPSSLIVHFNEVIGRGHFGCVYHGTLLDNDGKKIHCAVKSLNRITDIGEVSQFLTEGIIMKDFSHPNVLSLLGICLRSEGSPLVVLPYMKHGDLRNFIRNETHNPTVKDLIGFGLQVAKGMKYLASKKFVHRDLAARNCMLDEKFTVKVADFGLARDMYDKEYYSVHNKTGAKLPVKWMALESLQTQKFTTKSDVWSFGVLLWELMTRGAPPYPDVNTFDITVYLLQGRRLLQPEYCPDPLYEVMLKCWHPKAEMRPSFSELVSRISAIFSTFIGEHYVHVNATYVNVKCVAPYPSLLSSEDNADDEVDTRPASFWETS

IC50 [µM] | Structure (SMILES)
≤ 50 | CN(C)S(=O)(=O)C(F)c1ccc2ccc3ncc(-c4cnn(C)c4)cc3c(=O)c2c1 (stereo not shown) [Compound 4-2, 1-Fluoro-N,N-dimethyl-1-[3-(1-methyl-1H-pyrazol-4-yl)-5-oxo-5H-benzo[4,5]cyclohepta[1,2-b]pyridin-7-yl]methanesulfonamide]
≤ 50 | CN(C)S(=O)(=O)C(F)(F)c1ccc2ccc3ncc(-c4cnn(C)c4)cc3c(=O)c2c1 [Compound 4-1, 1,1-Difluoro-N,N-dimethyl-1-[3-(1-methyl-1H-pyrazol-4-yl)-5-oxo-5H-benzo[4,5]cyclohepta[1,2-b]pyridin-7-yl]methanesulfonamide]
≤ 50 | CC(c1ccc2ccc3ncc(-c4cnn(C)c4)cc3c(=O)c2c1)S(=O)(=O)N(C)c1ccccc1 (stereo not shown) [Compound 7-1, N-methyl-1-[3-(1-methyl-1H-pyrazol-4-yl)-5-oxo-5H-benzo[4,5]cyclohepta[1,2-b]pyridin-7-yl]-N-phenylethanesulfonamide]
≤ 50 | Cn1cc(-c2cnc3ccc4ccc(CS(=O)(=O)Nc5cccnc5)cc4c(=O)c3c2)cn1 [Compound 5-5, 1-[3-(1-methyl-1H-pyrazol-4-yl)-5-oxo-5H-benzo[4,5]cyclohepta[1,2-b]pyridin-7-yl]-N-pyridin-3-ylmethanesulfonamide]
